The test system of experiment [1] is rats following MCAO. Briefly: Brain infarction quantification (Nissl thionin) after MCAO. The note with it: s.c. daily for 3 days from 24 h post-MCAO (NAGH 0.86, NAD 2.8, Bromo-DTG 8.2, Chloro-DTG 8.5 mg/kg/day); 30 days post MCAO. Format: in vivo, rat. As to the method: All animal procedures were performed according to the University of South Florida guidelines for the care and use of animals and protocols were reviewed and approved by the Institutional Animal Care and Use Committee and adhered to the NIH guidelines for the care and use of animals. Adult male Sprague Dawley rats (Harlan) weighing about 250-300 g at the time of surgery were used for the study. All animals were housed two per cage in a temperature controlled room, under a 12 hour light-dark cycle, and given access to water and food ad libitum. Animals were monitored daily for wellness and biweekly for weight loss. For the NAGH studies, a total of 84 animals were randomly assigned to 2 groups: MCAO only (n=42) and rat treated with NAGH (n=42) beginning 24 hour after MCAO.
(§1) MCAO surgeries were performed as described elsewhere (Vendrame M, Cassady C J, Newcomb J, Butler T, Pennypacker K R, Zigova T, et al. Stroke. 2004; 35:2390-2395). Briefly, rats were anesthetized with isoflurane, and the right common carotid and external carotid arteries were exposed using blunt dissection techniques. The vagus nerve was separated from common carotid artery and the external carotid artery was ligated proximally, and transected near the bifurcation. An embolus 40 mm in length (4.0 siliconized monofilament) was inserted into the external carotid artery and fed distally into the origin of the middle cerebral artery (˜25 mm from insertion) through the internal carotid artery. Blood samples were taken and analyzed using an i-STAT handheld analyzer for hemoglobin, hematocrit, ionized calcium, glucose, sodium, potassium, pH, pCO2, HCO3, TCO2, base excess, pO2, and O2. Cerebral blood flow was recorded using a Laser Doppler Monitor (Moor Instruments) to verify occlusion. Afterwards, the embolus was ligated permanently into the vessel and the neck incision was closed. Animals were treated with Ketoprofen IM (10 mg/kg) for three days post-surgery.
(§2) For the NAGH studies, vehicle or NAGH were prepared fresh each day. Daily subcutaneous injections (s.c) were administered beginning about 24 hours after MCAO and continued daily to about 72 hours post-surgery (FIG. 1). Animals received a total of 3 injections. A total of 84 animals were randomly assigned into 2 groups: Rats treated with vehicle (40% DMSO in sterile saline, n=42), or rats treated with 0.86 mg/kg NAGH (n=42).
For the studies with other compounds based on the structure of DTG, twenty-four hours after MCAO, the rats began a sigma agonist treatment regimen. Vehicle or drug was prepared fresh each day. […]
Infarct size was determined by Nissl thionin staining. […]

In experiment [2] the test system is permanent middle cerebral artery occlusion (MCAO). The note with it: administered beginning 24 hours after permanent MCAO; cited from earlier work.
The subject of experiment [3] is microglial cells. To be noted: 24 hours after in vitro ischemia; cited from earlier work.
Experiment [4] concerns microglial cells. Briefly: Inhibition of microglial migration evoked by ATP. Format: cell-based. As to the method:
(§3) FIG. 8 is a series of images confirming NAGH acts as a sigma receptor agonist. A) Concentration-response relationship for NAGH (closed circles) and DTG (open circles) inhibition of microglial migration evoked by 100 μM ATP. […] Points represent mean (±SEM) and for all points, n>9. B) Bar graph of the mean (±SEM) number of microglial cells migrating in response to 100 μM ATP when ATP was added alone (DMEM) or in the presence of 100 μM NAGH. Microglia were further exposed to no σ antagonist (Control), or the σ-1 antagonist, BD-1047 (10 μM, BD-1047), or the σ-2 antagonist, rimcazole (10 μM, Rimcazole). Asterisks denote significant difference between DMEM and NAGH within Control, BD-1047 and Rimcazole groups, respectively. Pound symbols indicate significant difference between Control, BD-1047 and Rimcazole within DMEM and NAGH groups, respectively. P<0.05 and n=24 for all groups.
as §3, with “8A illustrates the concentration-response” for “8 is a series of images confirming NAGH acts as a sigma receptor agonist. A) Concentration-response”, “FIG. 8B depicts a bar” for “B) Bar”

Experiment [5] relates to stroke. The note with it: Ruscher, Shamloo et al. 2011; cited from earlier work.
For experiment [6], the system named is rats following MCAO. Briefly: Battery of behavioral tests after MCAO (corner, grip, rotorod, step, cylinder). The format is in vivo, rat. To be noted: NAD 2.8 mg/kg s.c. x3; 30 days after MCAO. As to the method:
After surgery, animals were tested was performed once before surgery and 30 days post-surgery for motor coordination and behavior. All behavioral data are reported as mean+sem.
Rotorod test, which measures motor coordination, was conducted using Omni-rotor Rotorod (Omnitech, Inc). Animals were trained on the accelerating rotorod apparatus for 3 consecutive days before times were collected. Animals were placed on the revolving rod and instrument was set to accelerate to a maximum speed of 40 rpm over 180 seconds. Latency to fall (in seconds) was recorded. This test was performed in triplicate once per day for 3 days.
(§4) Rats were held tightly with one forelimb placed on a hard flat table top and then pulled for a length of 1 meter in the direction of the placed forelimb at constant velocity. The test was repeated with the opposite forelimb. This was repeated three times for each forelimb and the percent of contralateral forelimb paw was obtained. The bias was standardized as the absolute number of steps with the contralateral paw minus 100.
The animals were placed in a transparent cylinder about 20 cm in diameter and 30 cm in height with an open top. The number times each paw was placed on the sides of the cylinder was counted a5 minute period. The test was videotaped and a mirror was placed behind the cylinder allowing the experimenter to see the placement of paws when the animal was facing away from the camera.
A 30 degree angle was formed using the edges of two plexiglass boards. The animals were placed halfway into the corner facing the corner and the total number of left and right turns was recorded. A total of 10 trials were conducted and videotaped. A non-lesioned animal turned randomly toward the left or right, while a lesioned animal preferentially turned toward the non-impaired (left) side. Results were reported as the percentage of ipsilateral (injury site, right side) versus contralateral turns.
Motor deficits were assessed using a grip strength meter (Bioseb, # BIO-GS3). […] Grip strength was recorded in Newtons (N). […]

For experiment [7], the system named is rats following MCAO. Briefly: Spontaneous activity (automated activity monitor) after MCAO. Format: in vivo, rat. To be noted: NAD 2.8 mg/kg s.c. x3; 30 days after MCAO; day and night. As to the method:
as §1, §2
(§5) For NAD testing, a total of 32 animals were randomly assigned into 2 groups: Vehicle (n=16), and rat treated with 2.8 mg/kg NAD (n=16). Vehicle consisted of 40% DMSO in sterile saline.
Spontaneous Activity was measured during both the day (1 hr) and night (12 hrs) using an automated activity monitor (VersaMax, Accuscan Instruments, Inc). Spontaneous Activity was measured prior to stroke to establish the normal baseline for each individual animal as well as 1 month after the MCAO. The animals were placed in a Plexiglas box and allowed to roam freely. There is a three dimensional infrared array in this box and when a beam is broken, activity is recorded. A total of sixteen parameters were measured including: Vertical movement, Horizontal movement, and Stereotypic activity were selected for analysis: Horizontal activity (HA), Total distance travelled (TD), Number of movements (MVN), Movement time (MVT), Vertical activity (VA), Number of vertical movements (VMN), vertical time (VT), Stereotype counts (SC), Number of Stereotypy (SN), Stereotypy time (ST), Clockwise rotation (CR), counterclockwise rotation (CCR), Margin distance (MD), Marginal time (MT), Center distance (CD), and Center time (CT). The data are presented as mean+SEM of percent of baseline behavior.

For experiment [8], the system named is rats following MCAO. Briefly: Step test after MCAO. The format is in vivo, rat. The note with it: NAD 2.8 mg/kg s.c. x3; 30 days post-stroke; p<0.05. As to the method: as §5, §4
Experiment [9] has as its system rats following MCAO. Briefly: Grip strength test after MCAO. The format is in vivo, rat. To be noted: NAD 2.8 mg/kg s.c. x3; 30 days after MCAO; p=0.0007. The method, then:
as §5
Motor deficits were assessed using a grip strength meter (Bioseb, # BIO-GS3). The animals were held so the front left paw could firmly grasp the bar of the strength meter, and then pulled straight backward until its front paw released its grasp. Grip strength was recorded in Newtons (N). This test was repeated 3 times.

[10] abbreviates: migration evoked by 100 μM ATP, two-component Langmuir-Hill fit.

The source of these data is US9636311B2, “N,N′-di-1 naphthylguanidine HCl (NAGH) and N,N′-di-p-nitrophenylguanidine HCl (NAD) treatment for stroke at delayed timepoints” (University of South Florida, priority 2012, dated 2017).

Entries after “also recorded” stand apart in the source; their conditions may differ. Where two headings read alike, the source gives them in different places.

With `Cl.N=C(Nc1cccc(Cl)c1)Nc1cccc(Cl)c1` [Chloro-DTG, N,N′-di-m-Chlorophenylguanidine hydrochloride], the “Infarct volume vs vehicle” value in [1] is “did not show significant effects over vehicle”.
As for `Cc1ccccc1NC(=N)Nc1ccccc1C` [DTG, 1,3-di-o-tolylguanidine, reference compound], in [2], the “Infarct size 96 hrs post-MCAO” value is given as “decreased infarct volume; also recorded: decreased infarct size” and the Long-term functional recovery result is recorded as “failed to improve long-term functional recovery”. The Microglial cell death entry in experiment [3] was “significantly reduced microglial cell death”. Besides, in experiment [4] (setting [10]), the “Emax, high affinity component” value turned out to be 0.38; the “Emax, low affinity component” value was determined as 0.62; the “Hill coefficient, high affinity component” value was 0.59; the “Hill coefficient, low affinity component” value worked out at 1.7. Further, the IC50 in [4] (migration evoked by 100 μM ATP, two-component Langmuir-Hill fit, read-out: IC50, high affinity component) was found to be 0.76 µM. The IC50 in experiment [4] (read-out: IC50, low affinity component) is 80 µM.
As for `COc1ccc(CCN2CCN(CCCc3ccccc3)CC2)cc1OC` [SA4503], in [5], the Infarct size result is reported as “without decreasing infarct size” and the Sensorimotor function result is listed as “improved sensorimotor function”.
With `Cl.N=C(Nc1ccc([N+](=O)[O-])cc1)Nc1ccc([N+](=O)[O-])cc1` [NAD, N,N′-di-p-Nitrophenylguanidine hydrochloride], the “Infarct volume vs vehicle” value in experiment [1] is recorded as “not significant”. The “Overall behavioral data vs vehicle, all tests except Grip Strength and Step test” value in [6] was “no significant difference”. The “Activity vs MCAO-only animals” value in experiment [7] was “less activity than MCAO-only animals”. Also, the “Step test, steps with impaired paw compared to unimpaired paw” value in [8] worked out at 100.3 ± 5.6%. Besides, the “Average grip strength vs non-treated rats” value in [9] is “significantly higher”.
Regarding `Cl.N=C(Nc1ccc(Br)cc1)Nc1ccc(Br)cc1` [Bromo-DTG, N,N′-di-p-Bromophenylguanidine hydrochloride], the “Infarct volume vs vehicle” value in experiment [1] is recorded as “did not show significant effects over vehicle”.
